Columns and labels:
[1] = system: WNK1; assay: KINOMEscan; type: binding; conditions: 1000 nM
[2] = system: GRK3; assay: KINOMEscan; type: binding; conditions: 1000 nM
[3] = system: EPHB2; assay: KINOMEscan; type: binding; conditions: 1000 nM
[4] = system: BIKE; assay: KINOMEscan; type: binding; conditions: 1000 nM
[5] = system: TNK1; assay: KINOMEscan; type: binding; conditions: 1000 nM
[6] = system: ERN1; assay: KINOMEscan; type: binding; conditions: 1000 nM
[7] = system: panel of B-cell lymphoma cell lines; assay: anti-proliferative CellTiter-Glo assay, whole panel; type: cell-based; conditions: all cell lines of the B-cell lymphoma panel
Experimental: Cell viability was measured using the CellTiter–Glo assay (Promega, USA) according to the manufacturer’s instructions, and […] was measured in a Bio-red Microplate reader (Bio-Red, USA).

[8] = system: GRK2; assay: KINOMEscan; type: binding; conditions: 1000 nM
[9] = system: ASK2; assay: KINOMEscan; type: binding; conditions: 1000 nM
[10] = system: CSNK2A1; assay: KINOMEscan; type: binding; conditions: 1000 nM
[11] = system: ROCK2; assay: KINOMEscan; type: binding; conditions: 1000 nM
[12] = biological target: T1, BLK (Homo sapiens, UniProt P51451); assay: KINOMEscan; type: binding; conditions: 1000 nM
T1 construct: purchased Invitrogen (Carlsbad, CA, USA)
T1 sequence (P51451 whole entry): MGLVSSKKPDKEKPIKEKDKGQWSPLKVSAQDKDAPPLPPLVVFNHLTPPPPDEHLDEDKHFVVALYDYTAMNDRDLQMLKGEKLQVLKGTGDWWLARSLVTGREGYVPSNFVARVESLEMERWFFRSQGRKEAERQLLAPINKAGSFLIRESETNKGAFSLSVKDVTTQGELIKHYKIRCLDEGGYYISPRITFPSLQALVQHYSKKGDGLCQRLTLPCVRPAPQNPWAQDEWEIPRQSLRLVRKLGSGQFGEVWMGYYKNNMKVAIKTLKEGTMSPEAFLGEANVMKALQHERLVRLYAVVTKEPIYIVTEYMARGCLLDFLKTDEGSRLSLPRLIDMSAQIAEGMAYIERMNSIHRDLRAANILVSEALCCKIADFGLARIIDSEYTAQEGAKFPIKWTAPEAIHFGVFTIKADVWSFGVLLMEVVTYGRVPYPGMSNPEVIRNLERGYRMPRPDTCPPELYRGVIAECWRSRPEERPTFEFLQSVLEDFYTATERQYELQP

[13] = system: ABL1(Q252H)-nonphosphorylated; assay: KINOMEscan; type: binding; conditions: 1000 nM
[14] = system: EGFR(L861Q); assay: KINOMEscan; type: binding; conditions: 1000 nM
[15] = system: RSK1(Kin.Dom.1-N-terminal); assay: KINOMEscan; type: binding; conditions: 1000 nM
[16] = system: TSSK1B; assay: KINOMEscan; type: binding; conditions: 1000 nM
[17] = system: EPHB3; assay: KINOMEscan; type: binding; conditions: 1000 nM
[18] = system: ERK3; assay: KINOMEscan; type: binding; conditions: 1000 nM
[19] = system: BUB1; assay: KINOMEscan; type: binding; conditions: 1000 nM
[20] = system: KIT(L576P); assay: KINOMEscan; type: binding; conditions: 1000 nM
[21] = system: DCAMKL2; assay: KINOMEscan; type: binding; conditions: 1000 nM
[22] = system: RSK3(Kin.Dom.1-N-terminal); assay: KINOMEscan; type: binding; conditions: 1000 nM
[23] = system: HASPIN; assay: KINOMEscan; type: binding; conditions: 1000 nM
[24] = system: CDK8; assay: KINOMEscan; type: binding; conditions: 1000 nM
[25] = system: TGFBR1; assay: KINOMEscan; type: binding; conditions: 1000 nM
[26] = system: GCN2(Kin.Dom.2,S808G); assay: KINOMEscan; type: binding; conditions: 1000 nM
[27] = system: CAMK2D; assay: KINOMEscan; type: binding; conditions: 1000 nM
[28] = system: CDK4-cyclinD1; assay: KINOMEscan; type: binding; conditions: 1000 nM
[29] = system: CSK; assay: KINOMEscan; type: binding; conditions: 1000 nM
[30] = system: GSK3B; assay: KINOMEscan; type: binding; conditions: 1000 nM
[31] = system: BRAF; assay: KINOMEscan; type: binding; conditions: 1000 nM
[32] = system: TEC; assay: KINOMEscan; type: binding; conditions: 1000 nM
[33] = system: MST2; assay: KINOMEscan; type: binding; conditions: 1000 nM
[34] = system: CDKL2; assay: KINOMEscan; type: binding; conditions: 1000 nM
[35] = system: FES; assay: KINOMEscan; type: binding; conditions: 1000 nM
[36] = system: EGFR(L747-E749del, A750P); assay: KINOMEscan; type: binding; conditions: 1000 nM
[37] = system: BRSK2; assay: KINOMEscan; type: binding; conditions: 1000 nM
[38] = system: CSNK1E; assay: KINOMEscan; type: binding; conditions: 1000 nM
[39] = system: NIK; assay: KINOMEscan; type: binding; conditions: 1000 nM
[40] = system: CLK4; assay: KINOMEscan; type: binding; conditions: 1000 nM
[41] = system: FLT3(D835Y); assay: KINOMEscan; type: binding; conditions: 1000 nM
[42] = system: PIK3CA(C420R); assay: KINOMEscan; type: binding; conditions: 1000 nM
[43] = system: TLK2; assay: KINOMEscan; type: binding; conditions: 1000 nM
[44] = system: RSK1(Kin.Dom.2-C-terminal); assay: KINOMEscan; type: binding; conditions: 1000 nM
[45] = system: ABL1(H396P)-nonphosphorylated; assay: KINOMEscan; type: binding; conditions: 1000 nM
[46] = system: VEGFR2; assay: KINOMEscan; type: binding; conditions: 1000 nM
[47] = biological target: T2, BTK (Homo sapiens, UniProt Q06187); assay: target-engagement assay with biotinylated probe CHMFL-BTK-85B in REC-1 cell; type: binding; conditions: 2 h, 1 μM
T2 construct: purchased Invitrogen (Carlsbad, CA, USA)
T2 sequence (Q06187 whole entry): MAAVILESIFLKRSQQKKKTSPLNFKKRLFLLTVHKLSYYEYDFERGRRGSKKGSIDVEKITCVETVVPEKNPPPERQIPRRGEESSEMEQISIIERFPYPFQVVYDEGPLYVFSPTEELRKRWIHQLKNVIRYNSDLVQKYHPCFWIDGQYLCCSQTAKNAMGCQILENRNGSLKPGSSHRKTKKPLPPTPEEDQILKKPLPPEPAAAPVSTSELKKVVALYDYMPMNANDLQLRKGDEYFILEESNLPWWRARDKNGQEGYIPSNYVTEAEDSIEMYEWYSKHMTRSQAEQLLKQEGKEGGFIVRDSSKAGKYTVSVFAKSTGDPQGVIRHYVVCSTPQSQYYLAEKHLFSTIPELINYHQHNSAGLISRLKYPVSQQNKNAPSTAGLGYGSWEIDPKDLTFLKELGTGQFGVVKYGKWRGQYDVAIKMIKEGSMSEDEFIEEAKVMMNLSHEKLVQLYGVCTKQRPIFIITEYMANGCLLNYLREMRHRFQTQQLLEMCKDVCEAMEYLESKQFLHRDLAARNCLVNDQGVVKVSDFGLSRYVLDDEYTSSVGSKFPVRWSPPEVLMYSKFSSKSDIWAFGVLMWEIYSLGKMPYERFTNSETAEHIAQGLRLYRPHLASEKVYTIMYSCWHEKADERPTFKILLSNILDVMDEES
Experimental: Cell lysates from REC-1 cells were treated with different concentrations of covalent inhibitor CHMFL-BTK-85 on ice for 2 hours. 1 µM biotinylated covalent probe (CHMFL-BTK-85B) was then added and lysates were incubated for another 2 hours. Uninhibited BTK was then captured by adding 50 µl Streptavidin agarose resin suspensions (Pierce) followed by an incubation for 1 hour. The resin was then spun down, washed briefly with 1X PBS buffer, and then resuspended in protein sample buffer for Western blot analysis.

[48] = system: ASK1; assay: KINOMEscan; type: binding; conditions: 1000 nM
[49] = system: FLT1; assay: KINOMEscan; type: binding; conditions: 1000 nM
[50] = system: ULK2; assay: KINOMEscan; type: binding; conditions: 1000 nM
[51] = system: RET(M918T); assay: KINOMEscan; type: binding; conditions: 1000 nM
[52] = system: RPS6KA4(Kin.Dom.1-N-terminal); assay: KINOMEscan; type: binding; conditions: 1000 nM

## C=CC(=O)Nc1cc(Nc2cc(-c3cccc(NC(=O)c4cc5c(s4)CCCC5)c3C)cn(C)c2=O)ccc1N1CCN(CC)CC1 [CHMFL-BTK-85]
[1]
  Percent Control: 100%
[2]
  Percent Control: 100%
[3]
  Percent Control: 84%
[4]
  Percent Control: 100%
[5]
  Percent Control: 75%
[6]
  Percent Control: 100%
[7]
  GI50s: < 2000 nM
[8]
  Percent Control: 100%
[9]
  Percent Control: 100%
[10]
  Percent Control: 94%
[11]
  Percent Control: 100%
[12]
  percent of control kinase binding at 1 µM: 57%
[13]
  Percent Control: 84%
[14]
  Percent Control: 94%
[15]
  Percent Control: 100%
[16]
  Percent Control: 88%
[17]
  Percent Control: 100%
[18]
  Percent Control: 100%
[19]
  Percent Control: 100%
[20]
  Percent Control: 79%
[21]
  Percent Control: 88%
[22]
  Percent Control: 85%
[23]
  Percent Control: 100%
[24]
  Percent Control: 100%
[25]
  Percent Control: 88%
[26]
  Percent Control: 75%
[27]
  Percent Control: 75%
[28]
  Percent Control: 100%
[29]
  Percent Control: 80%
[30]
  Percent Control: 100%
[31]
  Percent Control: 100%
[32]
  Percent Control: 100%
[33]
  Percent Control: 88%
[34]
  Percent Control: 98%
[35]
  Percent Control: 98%
[36]
  Percent Control: 57%
[37]
  Percent Control: 99%
[38]
  Percent Control: 95%
[39]
  Percent Control: 100%
[40]
  Percent Control: 96%
[41]
  Percent Control: 100%
[42]
  Percent Control: 98%
[43]
  Percent Control: 100%
[44]
  Percent Control: 100%
[45]
  Percent Control: 92%
[46]
  Percent Control: 99%
[47]
  covalent labelling of BTK in competition with CHMFL-BTK-85B: almost completely covalently label all of the available BTK
[48]
  Percent Control: 86%
[49]
  Percent Control: 100%
[50]
  Percent Control: 100%
[51]
  Percent Control: 78%
[52]
  Percent Control: 87%

Reference: paper PMC7490411 (Signal Transduction and Targeted Therapy, 2020)
